US20060154990A1, “Use of MEK inhibitors in treating abnormal cell growth” (AGOURON PHARMACEUTICALS, INC., priority 2004, published 2006)
Where “and” joins values, the source holds several entries; their conditions need not be identical. Equal entries are not always repeated.

Tests used:
pERK in C26 tumors = experiment: Tumor pERK inhibition and PK-PD in C26 tumor-bearing mice; type: in vivo; conditions: C26 tumor-bearing animals
[1] = Metabolites of [14C] Compound 1 in liver microsomes; type: in vitro ADME, dog; conditions: [C-14] Compound 1 10 μM, 90 mins
Protocol: (§1) Incubations were performed in hepatocytes for 3 hours and liver microsomes for 1.5 hours and were stopped with the addition of methanol. HPLC, in conjuction with ionspray 3D iontrap mass spectrometry, and simultaneous radioactive monitoring were used to detect and identify the resulting metabolites.
(§2) This acid cleavage product is further metabolized to form hydroxylated (M 11, 16% in rat) and hydroxylated, defluorinated products (M 17, 19% in rat).

MEK1 = MEK1 (Homo sapiens, UniProt Q02750); experiment: Cascade assay with raf-1, MEK1 and ERK1 (DELFIA readout); type: biochemical; conditions: purified MEK1, cascade assay raf-1/MEK1/ERK1; read-out: MEK enzyme IC50
[2] = Metabolites of [14C] Compound 1 in liver microsomes; type: in vitro ADME, human; conditions: [C-14] Compound 1 10 μM, 90 mins, listed as M 15
Protocol: as §1, §2

[3] = Metabolites of [14C] Compound 1 in cryopreserved hepatocytes; type: in vitro ADME, rat; conditions: [C-14] Compound 1 10 μM, 180 mins
Protocol: as §1
(§3) Metabolite identification of radiolabeled Compound 1 was performed after incubation with rat, dog, monkey and human cryopreserved hepatocytes and liver microsomes. […] Besides glucuronidation, metabolites derived from other clearance pathways are also observed. For instance, M 15 (acid cleavage product) accounts for 11% of the total radioactivity in the human chromatogram.

[4] = system: ERK phosphorylation in tumor cells; experiment: ERK phosphorylation in tumor cells grown in culture with 10% serum; type: cell-based; conditions: tumor cells in culture, 10% serum; read-out: IC50, reducing ERK phosphorylation
[5] = Metabolites of [14C] Compound 1 in liver microsomes; type: in vitro ADME, rat; conditions: [C-14] Compound 1 10 μM, 90 mins
Protocol: as §1, §2

[6] = Metabolites of [14C] Compound 1 in cryopreserved hepatocytes; type: in vitro ADME, human; conditions: [C-14] Compound 1 10 μM, 180 mins, listed as M 15
Protocol: as §1, §3

[7] = as above; type: in vitro ADME, monkey; conditions: [C-14] Compound 1 10 μM, 180 mins
Protocol: as §1, §3

[8] = as above; type: in vitro ADME, dog; conditions: [C-14] Compound 1 10 μM, 180 mins
Protocol: as §1, §3

[9] = Plasma pharmacokinetics after multiple oral doses in advanced cancer patients; conditions: for AUC of Compound 2 as % of the parent (median): human plasma
Protocol: Pharmacokinetic data are presented for the first 38 subjects.
Blood samples were collected from patients into a purple-top potassium EDTA Vacutainer tube. Following mixing with gentle inversion (8-10 times), tubes were centrifuged within 20 minutes at 1000×g for 15 minutes, to harvest plasma. Plasma samples were stored at −20° C. until analysis.
The following results are based on preliminary pharmacokinetic parameters from the 38 subjects, estimated using nominal collection times and quality-controlled, non quality-assured bioanalytical data. Pharmacokinetic parameters were determined by the non-compartmental method using WINNONLIN Professional Edition (Version 4.1). […] The maximum observed concentration (Cmax) was obtained by inspection of the concentration data. The time to reach the Cmax was the first time at which Cmax is observed and obtained by inspection of the data. The pre-dose concentration (Ctrough) was obtained by inspection of the concentration data.

[10] = Metabolites of [14C] Compound 1 in liver microsomes; type: in vitro ADME, monkey; conditions: [C-14] Compound 1 10 μM, 90 mins
Protocol: as §1, §2

[11] = system: ERK phosphorylation in colon 26 cells; experiment: cells; conditions: Mus musculus, Colon 26, read-out: Cellular activity IC50

Sequence of MEK1 (Q02750 whole entry, species assumed): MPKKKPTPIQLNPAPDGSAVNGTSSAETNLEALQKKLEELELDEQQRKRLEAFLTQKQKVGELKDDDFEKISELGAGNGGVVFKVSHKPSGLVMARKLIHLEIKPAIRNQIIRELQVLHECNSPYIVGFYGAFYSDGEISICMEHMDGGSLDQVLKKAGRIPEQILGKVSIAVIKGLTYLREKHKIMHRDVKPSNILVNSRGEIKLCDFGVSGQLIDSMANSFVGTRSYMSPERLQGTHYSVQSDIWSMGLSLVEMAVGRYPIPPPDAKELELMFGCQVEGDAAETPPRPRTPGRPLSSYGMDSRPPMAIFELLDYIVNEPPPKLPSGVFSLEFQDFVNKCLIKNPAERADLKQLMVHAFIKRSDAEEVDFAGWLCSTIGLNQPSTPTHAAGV

SMILES | target suppression of pERK in tumors (pERK in C26 tumors; 2 hours after 75 mg/kg IV) [%] | pERK activity in tumors (pERK in C26 tumors; 24 hours after 75 mg/kg IV) | % ROI Dog [1] [%] | IC50 (MEK1) [nM] | % ROI Human [2] | % ROI Rat [3] [%] | IC50 [4] [nM] | % ROI Rat [5] [%] | % ROI Human [6] | % ROI Monkey [7] [%] | % ROI Dog [8] [%] | increase of AUC of Compound 2 ([9]; after 21-day multiple BID dosing of Compound 1) | AUC of Compound 2 as % of the parent (median) ([9]; multiple dosing of Compound 1) [%] | AUC of Compound 2 as % of the parent (median) ([9]; single dosing of Compound 1) | terminal plasma half-life compared with parent ([9]; patients, after oral Compound 1) | % ROI Monkey [10] [%] | IC50 [11] [nM]
O=C(O)c1ccc(F)c(F)c1Nc1ccc(I)cc1F [Compound 2] | 98 | returned to control levels | 4.12 | 66 | 9% and 8.73% | 4.31 | 1300 | 1.86 | 11% and 11.07% | 1.72 | 2.46 | 2.0-5.0 fold | ~120 | approximately 66% | longer than that of the parent drug | 5.24 | 
O=C(NOC[C@@H](O)CO)c1ccc(F)c(F)c1Nc1ccc(I)cc1F [Compound 3] |  |  |  |  |  |  |  |  |  |  |  |  |  |  |  |  | 0.83
